What was measured:
[1] = tested on: males feeling decrease in the sleep quality and fatigue; assay: POMS after histidine ingestion for 14 days (crossover vs control food); format: in vivo, human; conditions: 1.65 g L-histidine daily for 14 days vs control food; paired t-test p<0.05
Source text: (§1) Twenty males of 45 years old to less than 65 years old, who received total evaluation of not less than 17 points in the “self-diagnosis fatigue questionnaire” (Fatigue Science Laboratory Inc.) performed in advance, felt decrease in the quality of sleep (generally PSQI≥6), and obtained fatigue factor T scores of not less than 60 points in POMS, were selected, and randomly divided into 2 groups (10 per group). A crossover test, including ingesting histidine and control food (equal volume of cellulose) each for 14 days, was performed in each group. As shown in the experiment protocol of FIG. 4A, the test subjects ingested capsules containing 1.65 g of L-histidine as a daily ingestion amount (5 capsules (hard capsule #2 WHITE OP B/C) containing 0.33 g of L-histidine alone), or control sample capsules (5 capsules containing equal volume of cellulose) for 14 days. After the completion of 14 day ingestion, a 14 day resting period was taken. After the resting period, they ingested the capsules not ingested before the resting period. […]

[2] = tested on: clock genes (Bmal1, Dbp, Per1, Per2, Reverb-alpha); assay: Oscillation of expression of clock genes of the auricle in aged mice; format: in vivo, mouse; conditions: aged mice 22 to 24 months, 1.2 w/v % L-histidine solution for 9 days
Experimental: Aged mice of 22 to 24 months of age being reared under generally light and dark environment were divided into two groups, and the effect of the ingestion of histidine drinking solution was studied. The histidine ingestion period was set to 9 days, during which period aqueous L-histidine solution (corresponding to L-histidine 1.2 w/v %) was given for ingestion by mounting a water inlet on a 50 mL centrifuge tube, whereby about 1.2 g/kg body weight of histidine was ingested per day. In the histidine ingestion group of aged mice, samples were taken from the auricle by changing the position over time on 8 to 9 days from the start of the ingestion of the aqueous histidine solution, and 5 kinds of clock genes (Bmal1, Dbp, Per1, Per2, Reverb-alpha) of the peripheral tissue were analyzed as an index of biorhythm. In the simultaneous stage, the clock genes of the auricle of the aged mice and young mice (4 months old) that ingested tap water were analyzed as comparison targets. […] To be specific, gene expression of the clock gene was quantified at each time point, and the amplitudes and phase of the oscillation of expression of the clock gene of each individual were determined by approximation on the cosine curve. […]

[3] = tested on: CD2F1 mice after burden of insufficient sleep; assay: Locomotor activities under novel environment after burden of insufficient sleep, single histidine administration; format: in vivo, mouse; conditions: single oral dose 1.2 g/kg body weight at ZT14; measured for 3 hr from ZT15; SD+His vs SD+solvent
Source text: Using CD2F1 mice (9-10-week-old) and as shown in the experiment protocol of FIG. 2A, a burden of insufficient sleep is applied to sleep disorder group (SD) for one day. The burden was released at ZT6, and the mice were placed back in the home cage and allowed to rest for 6 hr. The control group (CON) was reared without burden in the home cage. A 1.2 w/v % L-histidine solution was orally administered to a histidine administration group (SD+His) at 2 hr after the start of the dark phase after burden of insufficient sleep (ZT14), to achieve an L-histidine dose of 1.2 g/kg body weight. A solvent (water) was orally administered to the solvent administration group (SD+solvent) and the control group (CON). The locomotor activities under novel environment were measured for 3 hr from 3 hr after the start of the dark phase (ZT15).

[4] = tested on: males feeling decrease in the sleep quality and fatigue; assay: Cognitive function measurement task CogHealth, histidine ingestion for 14 days; format: in vivo, human; conditions: 1.65 g daily for 14 days vs control food
Source text: as §1

[5] = tested on: males feeling decrease in the quality of sleep and fatigue; assay: Safety of histidine ingestion: general properties, hematology, blood biochemistry; format: in vivo, human; conditions: 2 weeks continuous and single, 1.65 g
Source text: Twenty males of 45 years old to less than 65 years old, who received total evaluation of not less than 17 points in the “self-diagnosis fatigue questionnaire” (Fatigue Science Laboratory Inc.) performed in advance, felt decrease in the quality of sleep (generally PSQI≥6), and obtained fatigue factor T scores of not less than 60 points in POMS, were selected, and randomly divided into 2 groups (10 per group). A crossover test, including ingesting histidine and control food (equal volume of cellulose) each for 14 days, was performed in each group.
As shown in the experiment protocol of FIG. 4A, the test subjects ingested capsules containing 1.65 g of L-histidine as a daily ingestion amount (5 capsules (hard capsule #2 WHITE OP B/C) containing 0.33 g of L-histidine alone), or control sample capsules (5 capsules containing equal volume of cellulose) for 14 days. After the completion of 14 day ingestion, a 14 day resting period was taken. After the resting period, they ingested the capsules not ingested before the resting period. […]

In the case of `N[C@@H](Cc1c[nH]cn1)C(=O)O` [histidine, L-histidine], the “fatigue factor scores of POMS” value [1] is reported as “significantly decreased”, the “phase of the oscillation of expression of the clock gene” value ([2]; about 1.2 g/kg body weight per day, vs aged mice on tap water) is reported as “suppressed phase advancement” and the “average phase of measured 5 clock genes compared to young mice” value ([2]; compared to young mice (4 months old)) is reported as “reached the same level as in young mice”. The “locomotor activities under novel environment” value [3] was “tendency of suppression of a decrease in the locomotor activities”, the “reaction time of cognitive function measurement task” value [4] was “shortened” and the “reaction time of delayed recall task” value ([4]; paired t-test p<0.05) was “significantly decreased”. The “variation in general properties, hematology, and blood biochemistry” value [5] was “did not show problematic variation”.

— US10390553B2, “Food containing histidine and use thereof” (AJINOMOTO CO., INC., priority 2013, dated 2019)
